The source of these data is patent US20260365653A1, “IRREVERSIBLE MUTEGFR INHIBITORS” (Bayer Aktiengesellschaft, priority 2022, published 2026).

Usually IC50 stands for the concentration at which inhibition is half-maximal. A lower IC50 goes with inhibition by little substance.

The target in assay [1] is T1, mutEGFR (D770_N771insSVD) (Homo sapiens, UniProt P00533, DUP768-770).
T1 construct: GST-EGFR #3 (SVD between D770 and N771); made in house; host or cells: Sf9 insect cells (baculovirus)
Put plainly: Exon20-Mutant-EGFR (D770_N771insSVD) kinase assay (TR-FRET). It is filed as biochemical. For orientation: Time-resolved FRET reads energy transfer from a long-lived donor to a nearby acceptor.

For assay [2], the target named is T2, mutEGFR (D770_N771insNPG, T790) (Homo sapiens, UniProt P00533, INS770NPG/T790M).
T2 construct: exact insNPG construct not described; in-house EGFR proteins were N-terminal GST fusions from baculovirus/insect cells (borders R669-A1210 given only for WT, insSVD, insASV)
T2 sequence (P00533 with tags, fused parts or gaps INS770NPG/T790M limits assumed): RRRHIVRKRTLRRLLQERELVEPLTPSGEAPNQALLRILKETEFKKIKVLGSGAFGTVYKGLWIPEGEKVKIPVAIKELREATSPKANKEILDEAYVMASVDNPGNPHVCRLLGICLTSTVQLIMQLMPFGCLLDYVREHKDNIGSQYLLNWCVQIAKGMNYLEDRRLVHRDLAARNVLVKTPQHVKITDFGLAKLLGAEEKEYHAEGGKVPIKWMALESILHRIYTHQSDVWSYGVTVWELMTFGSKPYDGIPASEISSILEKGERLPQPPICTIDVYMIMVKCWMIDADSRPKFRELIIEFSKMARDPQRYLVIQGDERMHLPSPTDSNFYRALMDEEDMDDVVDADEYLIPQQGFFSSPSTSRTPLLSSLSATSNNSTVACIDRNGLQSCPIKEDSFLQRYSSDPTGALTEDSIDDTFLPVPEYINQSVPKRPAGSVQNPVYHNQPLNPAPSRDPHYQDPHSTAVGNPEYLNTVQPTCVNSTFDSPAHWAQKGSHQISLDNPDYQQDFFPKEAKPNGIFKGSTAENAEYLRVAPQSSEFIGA
The assay can be described thus: mutEGFR (D770_N771insNPG, T790) kinase assay. The class given is biochemical. The text has this: The different EGFR proteins used in the biochemical kinase activity inhibition assays were generated inhouse by expression in insect cells using Baculo Virus system and subsequent purification as described in the following paragraphs.
The cDNAs encoding the various protein sequences from human EGFR human (P00533) were optimized for expression in eukaryotic cells and synthesized by the GeneArt Technology at Life Technologies.

For assay [3], the system named is BA/F3 (insSVD) cells. Put plainly: Ba/F3-EGFR-insSVD cell survival assay (Cell Titer-Glo). It is filed as cell-based. An outline of the steps: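 Ba/F3 cells stably expressing retroviral EGFR-insSVD or insSVD T790M, grown without IL-3 on 10 ng/ml EGF, 4000 cells/well. Compound pinned in, 48 h at 37° C. Viability by CellTiter-Glo luminescence.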
The test system of assay [4] is BA/F3 (EGFR D770_N771 insSVD T790M) cells. Put plainly: Ba/F3-EGFR-insSVD T790M cell survival assay (Cell Titer-Glo). The class given is cell-based. The note with it: Ba/F3 EGFR-D770-N771ins_SVD, 48 h. The protocol:
Cellular Data Description (WT, insSVD, insSVD T790M) 293T cells from ATCC were transfected with pBABEpuro expression constructs for WT EGFR or EGFR-insSVD, or EGFR-insSVD T790M, and pCL-Eco packaging vector using Fugene-6 transfection reagent from Promega. Plates were incubated at 37° C. for 48 h. Retrovirus was harvested by filtering the media supernatant through a 0.45 μm filter.
Ba/F3 cells purchased from DSMZ were grown in RPMI+10% FBS+10 ng/ml IL-3 and infected with filtered retroviral supernatant at a 1:2 dilution. Polybrene was added to a concentration of 8 μg/mL, plates were spun for 90 min, and incubated for 16 h at 37° C. 2 μg/mL puromycin was added to the infected cells 24 h after infection and cells were continually grown in the presence of puromycin and 10 ng/ml IL-3. Following stably expressing Ba/F3 cell lines were generated: Ba/F3-EGFR-WT, Ba/F3-EGFR-insSVD, Ba/F3-EGFR-insSVD T790M, (Ba/F3-vector-control).
For cell survival assays, Ba/F3 cells were grown to a density of 1-2 million cells per mL, spun down and resuspended in media without IL-3, and replated at a concentration of 200,000-500,000 cells per mL. The cells ectopically expressing WT EGFR, EGFR-insSVD, or EGFR-insSVD T790M were plated with 10 ng/ml Millipore Culture grade EGF. The cells ectopically expressing pBABEpuro empty vector were plated with 10 ng/mL IL-3.
2 days later, cells were plated in 50 µL in a 384 well plate at a concentration of 4000 cells per well for cells assayed in the absence of IL-3 and 2000 cells per well for cells assayed in the presence of IL-3. 100 nL of compound was added to each well using a 100 nL pin head, and plates were incubated at 37° C. for 48 h.
Cell viability was measured by adding 20 μL of Cell Titer-Glo Luminescent Cell Viability Reagent diluted 1:3 in PBS. Plates were sealed with Perkin Elmer Top-Seal, inverted several times to mix, and immediately centrifuged at 1000 rpm for 2 min. Plates were incubated in low light conditions for 8-10 min and luminescence was measured.

The mark [5] stands for this setting: mutEGFR (D770_N771insSVD) kinase assay IC50, Table 2a, D770_N771insSVD, 2 mM ATP.
Setting [6] is: mutEGFR (D770_N771insSVD) kinase assay IC50, Table 2b (from US Priority Patent Application), mutEGFR D770_N771insSVD.
Setting [7] is: Table 2b (from US Priority Patent Application), mutEGFR D770_N771insNPG.
[8] abbreviates: Mus musculus, BaF3, 48 h, Table 3a, cell survival, Cell Titer-Glo, with 10 ng/ml EGF, without IL-3.
[9] abbreviates: Mus musculus, BaF3, 48 h, Table 3b, Ba/F3 EGFR-insSVD.
The mark [10] stands for this setting: Table 3a, cell survival, Cell Titer-Glo, with 10 ng/ml EGF, without IL-3.
[11] abbreviates: Table 3b, Ba/F3 EGFR-insSVD T790M.

Each structure is given as a SMILES string.

T1 sequence (P00533 with tags, fused parts or gaps DUP768-770): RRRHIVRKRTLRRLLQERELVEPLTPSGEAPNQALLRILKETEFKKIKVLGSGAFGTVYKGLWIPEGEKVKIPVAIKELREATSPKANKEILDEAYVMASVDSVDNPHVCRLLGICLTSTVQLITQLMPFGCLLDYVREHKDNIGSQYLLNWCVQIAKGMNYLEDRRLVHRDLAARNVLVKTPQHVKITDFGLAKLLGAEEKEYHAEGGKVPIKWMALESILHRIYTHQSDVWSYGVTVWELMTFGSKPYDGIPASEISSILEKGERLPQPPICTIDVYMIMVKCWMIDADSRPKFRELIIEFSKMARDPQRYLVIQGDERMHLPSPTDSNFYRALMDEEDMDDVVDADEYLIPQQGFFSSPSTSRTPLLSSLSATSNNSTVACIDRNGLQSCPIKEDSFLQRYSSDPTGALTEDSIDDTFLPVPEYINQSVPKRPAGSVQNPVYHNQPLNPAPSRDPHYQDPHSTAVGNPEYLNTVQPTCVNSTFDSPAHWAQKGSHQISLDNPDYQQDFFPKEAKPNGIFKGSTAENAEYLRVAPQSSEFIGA

As for `C=CC(=O)N1CCn2nc(-c3ccc(F)cc3)c(-c3ccnc(N)c3)c2C1` [Example 10, 1-[3-(2-aminopyridin-4-yl)-2-(4-fluorophenyl)-6,7-dihydropyrazolo[1,5-a]pyrazin-5(4H)-yl]prop-2-en-1-one], the IC50 in assay [1] (setting [5]) came out at 0.849 nM; in assay [1] (setting [6]) it was 0.849 nM; in assay [2] (Table 2a, D770_N771insNPG) it was 2.26 nM; in assay [2] (setting [7]), 2.26 nM; in assay [3] (setting [8]), 46.5 nM; in assay [3] (setting [9]), 46.5 nM. Also, the IC50 in assay [4] (setting [10]) and in assay [4] (setting [11]) was 346 nM in each case.

As for `C=CC(=O)N1CCn2nc(-c3ccc4cc[nH]c4c3)c(-c3ccncc3)c2C1` [Example 195, 1-[2-(1H-indol-6-yl)-3-(pyridin-4-yl)-6,7-dihydropyrazolo[1,5-a]pyrazin-5(4H)-yl]prop-2-en-1-one], the IC50 was determined as 0.0825 nM in assay [1] (setting [5]); 0.219 nM in assay [2] (Table 2a, D770_N771insNPG); 8.9 nM in assay [3] (setting [8]); 43.3 nM in assay [4] (setting [10]).

Consider `CC(C)N(C)C/C=C/C(=O)N1CCn2nc(-c3ccc(F)cc3)c(-c3ccncc3)c2C1` [Example 18, (2E)-1-[2-(4-fluorophenyl)-3-(pyridin-4-yl)-6,7-dihydropyrazolo[1,5-a]pyrazin-5(4H)-yl]-4-[methyl(propan-2-yl)amino]but-2-en-1-one], for which the IC50 is 0.451 nM in assay [1] (setting [5]); 0.451 nM in assay [1] (setting [6]); 1.76 nM in assay [2] (Table 2a, D770_N771insNPG); 1.76 nM in assay [2] (setting [7]); 143 nM in assay [3] (setting [8]); 143 nM in assay [3] (setting [9]). Besides, the figures for the IC50 in assay [4] (setting [10]) and in assay [4] (setting [11]) were 9980 nM and 0.217 nM, respectively.

`CC(C)N(C)C/C=C/C(=O)N1CCn2nc(-c3ccc(F)cc3)c(-c3ccnc(NC(=O)C4CC4)c3)c2C1` [Example 6, N-{4-[2-(4-fluorophenyl)-5-{(2E)-4-[methyl(propan-2-yl)amino]but-2-enoyl}-4,5,6,7-tetrahydropyrazolo[1,5-a]pyrazin-3-yl]pyridin-2-yl}cyclopropanecarboxamide]: the IC50 in assay [1] (setting [5]) came out at 0.326 nM; in assay [1] (setting [6]), 0.326 nM; in assay [2] (Table 2a, D770_N771insNPG), 0.407 nM; in assay [2] (setting [7]) it was 0.407 nM; in assay [3] (setting [8]) it was 22.3 nM; in assay [3] (setting [9]) it was 22.3 nM. The IC50 in assay [4] (setting [10]) and in assay [4] (setting [11]) was 207 nM each time.

As for `C=CC(=O)N1C(C)c2c(-c3ccncc3)c(-c3ccc(Cl)cc3F)nn2C[C@@H]1C` (single isomer, unassigned; isomer 2) [Example 293], the IC50 in assay [1] (setting [5]) was 50.3 nM; in assay [2] (Table 2a, D770_N771insNPG), 96 nM; in assay [3] (Table 3a, cell survival, Cell Titer-Glo, with 10 ng/ml EGF, without IL-3, 48 h) it was 380 nM; in assay [4] (setting [10]) it was 9980 nM.

Turning to `C=CC(=O)N1CCn2nc(-c3ccc4sccc4c3)c(-c3ccncc3)c2C1` [Example 192, 1-[2-(1-benzothiophen-5-yl)-3-(pyridin-4-yl)-6,7-dihydropyrazolo[1,5-a]pyrazin-5(4H)-yl]prop-2-en-1-one], the IC50 in assay [1] (setting [5]) is less than 0.0725 nM; in assay [2] (Table 2a, D770_N771insNPG) it was 0.0916 nM; in assay [3] (setting [8]), 148 nM; in assay [4] (setting [10]) it was 39.7 nM.

With `C=CC(=O)N1CCn2nc(-c3ccc(Cl)c(Cl)c3)c(-c3ccncc3)c2C1` [Example 40, 1-[2-(3,4-dichlorophenyl)-3-(pyridin-4-yl)-6,7-dihydropyrazolo[1,5-a]pyrazin-5(4H)-yl]prop-2-en-1-one], the IC50 was found to be 0.0982 nM in assay [1] (setting [5]); 0.148 nM in assay [2] (Table 2a, D770_N771insNPG); 14.9 nM in assay [3] (setting [8]); 56 nM in assay [4] (setting [10]).

`C=CC(=O)N1CCn2nc(-c3ccc(Cl)c(F)c3)c(-c3ccncc3)c2C1` [Example 36, 1-[2-(4-chloro-3-fluorophenyl)-3-(pyridin-4-yl)-6,7-dihydropyrazolo[1,5-a]pyrazin-5(4H)-yl]prop-2-en-1-one]: the IC50 in assay [1] (setting [5]) is 0.321 nM; in assay [2] (Table 2a, D770_N771insNPG), 1.13 nM; in assay [3] (setting [8]) it was 17.9 nM; in assay [4] (setting [10]) it was 126 nM.

On to `C=CC(=O)N1CCn2nc(-c3cccc(OC)c3)c(-c3ccncc3)c2C1` [Example 5, 1-[2-(3-methoxyphenyl)-3-(pyridin-4-yl)-6,7-dihydropyrazolo[1,5-a]pyrazin-5(4H)-yl]prop-2-en-1-one], for which the IC50 in assay [1] (setting [5]) is 2.19 nM; in assay [1] (setting [6]), 2.19 nM; in assay [2] (Table 2a, D770_N771insNPG), 1.04 nM; in assay [2] (setting [7]), 1.04 nM; in assay [3] (setting [8]) it was 80.5 nM; in assay [3] (setting [9]), 80.5 nM. The IC50 in assay [4] (setting [10]) and in assay [4] (setting [11]) was 114 nM in each case.

For the molecule `C=CC(=O)N1Cc2c(-c3ccncc3)c(-c3ccc(F)cc3)nn2C(CO)C1` (racemic) [Example 203, 1-[(7RS)-2-(4-fluorophenyl)-7-(hydroxymethyl)-3-(pyridin-4-yl)-6,7-dihydropyrazolo[1,5-a]pyrazin-5(4H)-yl]prop-2-en-1-one], the IC50 in assay [1] (setting [5]) came out at 0.409 nM; in assay [2] (Table 2a, D770_N771insNPG), 1.42 nM; in assay [3] (setting [8]) it was 17.4 nM; in assay [4] (setting [10]), 108 nM.

In the case of `C=CS(=O)(=O)N1CCn2nc(-c3ccc(F)cc3)c(-c3ccncc3)c2C1` [Example 14, 5-(ethenesulfonyl)-2-(4-fluorophenyl)-3-(pyridin-4-yl)-4,5,6,7-tetrahydropyrazolo[1,5-a]pyrazine], the IC50 in assay [1] (setting [5]) amounted to 0.406 nM; in assay [1] (setting [6]) it was 0.406 nM; in assay [2] (Table 2a, D770_N771insNPG), 0.867 nM; in assay [2] (setting [7]) it was 0.867 nM; in assay [3] (setting [8]), 760 nM; in assay [3] (setting [9]) it was 760 nM. Also, the IC50 in assay [4] (setting [10]) and in assay [4] (setting [11]) was 983 nM in each case.

Consider `C=CC(=O)N1CCn2nc(-c3ccc(Cl)cc3F)c(-c3ccncc3)c2C1` [Example 37, 1-[2-(4-chloro-2-fluorophenyl)-3-(pyridin-4-yl)-6,7-dihydropyrazolo[1,5-a]pyrazin-5(4H)-yl]prop-2-en-1-one], for which the IC50 turned out to be 0.258 nM in assay [1] (setting [5]); 0.658 nM in assay [2] (Table 2a, D770_N771insNPG); 7.14 nM in assay [3] (setting [8]); 104 nM in assay [4] (setting [10]).

On to `C=CC(=O)N1CCn2nc(-c3ccc(Cl)cc3)c(-c3ccncc3)c2C1` [Example 3, 1-[2-(4-chlorophenyl)-3-(pyridin-4-yl)-6,7-dihydropyrazolo[1,5-a]pyrazin-5(4H)-yl]prop-2-en-1-one], for which the IC50 in assay [1] (setting [5]) was 0.139 nM; in assay [1] (setting [6]), 0.139 nM; in assay [2] (Table 2a, D770_N771insNPG), 0.324 nM; in assay [2] (setting [7]) it was 0.324 nM; in assay [3] (setting [8]), 13.2 nM; in assay [3] (setting [9]) it was 13.2 nM. Further, the IC50 in assay [4] (setting [10]) and in assay [4] (setting [11]) was 108 nM each time.

Regarding `C=CC(=O)N1CCn2nc(-c3ccc(Cl)cc3F)c(-c3ccnc(NC)c3)c2C1` [Example 53, 1-[2-(4-chloro-2-fluorophenyl)-3-[2-(methylamino)pyridin-4-yl]-6,7-dihydropyrazolo[1,5-a]pyrazin-5(4H)-yl]prop-2-en-1-one], the IC50 came to 0.997 nM in assay [1] (setting [5]); 7.05 nM in assay [2] (Table 2a, D770_N771insNPG); 44.2 nM in assay [3] (setting [8]).
